ChEMBL document CHEMBL5375979, “Chemical, Biochemical, Cellular, and Physiological Characterization of Leucettinib-21, a Down Syndrome and Alzheimer's Disease Drug Candidate” (J Med Chem, 2023)

How the values were obtained:
[1] = molecular target: T1, Dual specificity protein kinase CLK1 (Homo sapiens, UniProt P49759)
[2] = molecular target: Dual specificity protein kinase CLK4 (Homo sapiens, UniProt Q9HAZ1)
[3] = molecular target: T2, AP2-associated protein kinase 1 (Homo sapiens, UniProt Q2M2I8)
Description: Inhibition of human AAK1 assessed as remaining activity by eurofins-cerep kinase profiler analysis

[4] = molecular target: Cyclin-dependent kinase-like 1 (Homo sapiens, UniProt Q00532)
Description: Inhibition of human CDKL1 assessed as remaining activity by eurofins-cerep kinase profiler analysis

[5] = molecular target: Cyclin-dependent kinase-like 2 (Homo sapiens, UniProt Q92772)
Description: Inhibition of human CDKL2 assessed as remaining activity by eurofins-cerep kinase profiler analysis

[6] = molecular target: Cyclin-dependent kinase-like 3 (Homo sapiens, UniProt Q8IVW4)
Description: Inhibition of human CDKL3 assessed as remaining activity by eurofins-cerep kinase profiler analysis

[7] = molecular target: Cyclin-dependent kinase-like 4 (Homo sapiens, UniProt Q5MAI5)
Description: Inhibition of human CDKL4 assessed as remaining activity by eurofins-cerep kinase profiler analysis

[8] = molecular target: Dual specificity protein kinase CLK2 (Homo sapiens, UniProt P49760)
Description: Inhibition of human CLK2 assessed as remaining activity by eurofins-cerep kinase profiler analysis

[9] = molecular target: T3, Dual specificity protein kinase CLK3 (Homo sapiens, UniProt P49761)
Description: Inhibition of human CLK3 assessed as remaining activity by eurofins-cerep kinase profiler analysis

Myotonin-protein kinase = Myotonin-protein kinase (Homo sapiens, UniProt Q09013)
Description: Inhibition of human DMPK assessed as remaining activity by eurofins-cerep kinase profiler analysis

[10] = molecular target: T4, Dual specificity tyrosine-phosphorylation-regulated kinase 3 (Homo sapiens, UniProt O43781)
T4 sequence (O43781 whole entry): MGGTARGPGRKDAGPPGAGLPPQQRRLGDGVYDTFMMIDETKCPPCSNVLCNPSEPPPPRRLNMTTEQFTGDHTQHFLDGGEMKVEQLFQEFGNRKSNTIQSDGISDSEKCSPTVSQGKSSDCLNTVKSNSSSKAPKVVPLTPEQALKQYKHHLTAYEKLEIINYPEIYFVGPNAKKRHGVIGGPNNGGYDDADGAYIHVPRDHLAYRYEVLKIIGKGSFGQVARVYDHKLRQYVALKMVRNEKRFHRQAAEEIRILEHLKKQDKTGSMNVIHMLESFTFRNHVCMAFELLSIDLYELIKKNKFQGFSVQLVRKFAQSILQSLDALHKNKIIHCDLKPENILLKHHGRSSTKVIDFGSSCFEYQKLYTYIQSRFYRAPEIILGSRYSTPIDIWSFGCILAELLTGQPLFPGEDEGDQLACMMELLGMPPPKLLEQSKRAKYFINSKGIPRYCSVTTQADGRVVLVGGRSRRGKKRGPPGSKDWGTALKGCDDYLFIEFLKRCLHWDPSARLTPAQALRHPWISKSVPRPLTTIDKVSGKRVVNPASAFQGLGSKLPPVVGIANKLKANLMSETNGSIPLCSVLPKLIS
Description: Inhibition of human DYRK3 assessed as remaining activity by eurofins-cerep kinase profiler analysis

[11] = molecular target: Serine/threonine-protein kinase haspin (Homo sapiens, UniProt Q8TF76)
Description: Inhibition of human HASPIN assessed as remaining activity by eurofins-cerep kinase profiler analysis

[12] = molecular target: Homeodomain-interacting protein kinase 1 (Homo sapiens, UniProt Q86Z02)
Description: Inhibition of human HIPK1 assessed as remaining activity by eurofins-cerep kinase profiler analysis

[13] = molecular target: Homeodomain-interacting protein kinase 2 (Homo sapiens, UniProt Q9H2X6)
Description: Inhibition of human HIPK2 assessed as remaining activity by eurofins-cerep kinase profiler analysis

[14] = molecular target: Homeodomain-interacting protein kinase 3 (Homo sapiens, UniProt Q9H422)
Description: Inhibition of human HIPK3 assessed as remaining activity by eurofins-cerep kinase profiler analysis

[15] = molecular target: Homeodomain-interacting protein kinase 4 (Homo sapiens, UniProt Q8NE63)
Description: Inhibition of human HIPK4 assessed as remaining activity by eurofins-cerep kinase profiler analysis

[16] = molecular target: cGMP-dependent protein kinase 2 (Homo sapiens, UniProt Q13237)
Description: Inhibition of human PRKG2 assessed as remaining activity by eurofins-cerep kinase profiler analysis

[17] = molecular target: Transcription initiation factor TFIID subunit 1-like (Homo sapiens, UniProt Q8IZX4)
Description: Inhibition of human TAF1L assessed as remaining activity by eurofins-cerep kinase profiler analysis

[18] = molecular target: Serine/threonine-protein kinase TAO1 (Homo sapiens, UniProt Q7L7X3)
Description: Inhibition of human TAO1 assessed as remaining activity by eurofins-cerep kinase profiler analysis

[19] = molecular target: Serine/threonine-protein kinase TAO2 (Homo sapiens, UniProt Q9UL54)
Description: Inhibition of human TAO2 assessed as remaining activity by eurofins-cerep kinase profiler analysis

[20] = molecular target: Serine/threonine-protein kinase TAO3 (Homo sapiens, UniProt Q9H2K8)
Description: Inhibition of human TAO3 assessed as remaining activity by eurofins-cerep kinase profiler analysis

Tribbles homolog 2 = Tribbles homolog 2 (Homo sapiens, UniProt Q92519)
Description: Inhibition of human TRB2 assessed as remaining activity by eurofins-cerep kinase profiler analysis

[21] = molecular target: BMP-2-inducible protein kinase (Homo sapiens) (UniProt Q9NSY1); settings: dose 10.0 µM
[22] = molecular target: T1, Dual specificity protein kinase CLK1; settings: dose 10.0 µM
[23] = molecular target: T3, Dual specificity protein kinase CLK3; settings: dose 10.0 µM
[24] = molecular target: Dual specificity tyrosine-phosphorylation-regulated kinase 2 (Homo sapiens) (UniProt Q92630); settings: dose 10.0 µM
[25] = molecular target: T2, AP2-associated protein kinase 1; settings: dose 10.0 µM
[26] = molecular target: Glycogen synthase kinase-3 beta (Homo sapiens) (UniProt P49841); settings: dose 10.0 µM
[27] = molecular target: Myotonin-protein kinase (Homo sapiens) (UniProt Q09013); settings: dose 10.0 µM
[28] = molecular target: Death-associated protein kinase 3 (Homo sapiens) (UniProt O43293); settings: dose 10.0 µM
[29] = molecular target: Aurora kinase A (Homo sapiens) (UniProt O14965); settings: dose 10.0 µM
[30] = molecular target: Cyclin-G-associated kinase (Homo sapiens) (UniProt O14976); settings: dose 10.0 µM
[31] = molecular target: Maternal embryonic leucine zipper kinase (Homo sapiens) (UniProt Q14680); settings: dose 10.0 µM
[32] = molecular target: Calcium/calmodulin-dependent protein kinase kinase 2 (Homo sapiens) (UniProt Q96RR4); settings: dose 10.0 µM
[33] = molecular target: Serine/threonine-protein kinase PLK4 (Homo sapiens) (UniProt O00444); settings: dose 10.0 µM
[34] = molecular target: Serine/threonine-protein kinase PIM (Homo sapiens) (UniProt P11309+Q9P1W9+Q86V86); settings: dose 10.0 µM
Serine/threonine-protein kinase PIM (Homo sapiens), sequence (P11309 whole entry, looked up): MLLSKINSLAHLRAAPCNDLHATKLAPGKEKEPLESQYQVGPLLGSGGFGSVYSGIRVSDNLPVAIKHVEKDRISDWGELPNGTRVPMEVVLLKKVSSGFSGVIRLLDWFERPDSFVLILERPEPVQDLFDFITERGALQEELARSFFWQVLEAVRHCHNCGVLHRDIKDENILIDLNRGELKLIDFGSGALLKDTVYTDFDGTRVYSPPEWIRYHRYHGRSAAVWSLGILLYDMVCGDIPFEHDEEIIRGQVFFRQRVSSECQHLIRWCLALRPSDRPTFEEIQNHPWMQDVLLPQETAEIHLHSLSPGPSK
Serine/threonine-protein kinase PIM (Homo sapiens), sequence (Q9P1W9 whole entry, looked up): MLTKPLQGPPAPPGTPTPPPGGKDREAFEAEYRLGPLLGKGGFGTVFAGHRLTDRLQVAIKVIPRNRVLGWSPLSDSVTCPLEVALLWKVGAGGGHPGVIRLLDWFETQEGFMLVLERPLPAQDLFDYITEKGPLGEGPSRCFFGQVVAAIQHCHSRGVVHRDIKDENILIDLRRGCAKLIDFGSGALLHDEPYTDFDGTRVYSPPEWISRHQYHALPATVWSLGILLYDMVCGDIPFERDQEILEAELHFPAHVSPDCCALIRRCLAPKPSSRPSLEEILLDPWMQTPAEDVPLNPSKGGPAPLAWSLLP

Aurora kinase A (Homo sapiens), sequence (O14965 whole entry): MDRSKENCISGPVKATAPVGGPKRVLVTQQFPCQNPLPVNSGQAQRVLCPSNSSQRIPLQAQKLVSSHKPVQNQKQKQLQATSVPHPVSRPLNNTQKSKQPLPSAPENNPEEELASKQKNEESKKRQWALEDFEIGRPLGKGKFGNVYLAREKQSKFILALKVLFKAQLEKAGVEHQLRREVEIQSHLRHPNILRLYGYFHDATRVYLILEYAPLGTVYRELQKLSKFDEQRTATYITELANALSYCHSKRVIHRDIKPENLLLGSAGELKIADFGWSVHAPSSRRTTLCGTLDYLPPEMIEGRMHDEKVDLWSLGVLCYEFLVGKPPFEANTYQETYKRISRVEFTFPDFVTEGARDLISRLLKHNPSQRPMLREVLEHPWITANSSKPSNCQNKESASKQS
Serine/threonine-protein kinase PLK4 (Homo sapiens), sequence (O00444 whole entry): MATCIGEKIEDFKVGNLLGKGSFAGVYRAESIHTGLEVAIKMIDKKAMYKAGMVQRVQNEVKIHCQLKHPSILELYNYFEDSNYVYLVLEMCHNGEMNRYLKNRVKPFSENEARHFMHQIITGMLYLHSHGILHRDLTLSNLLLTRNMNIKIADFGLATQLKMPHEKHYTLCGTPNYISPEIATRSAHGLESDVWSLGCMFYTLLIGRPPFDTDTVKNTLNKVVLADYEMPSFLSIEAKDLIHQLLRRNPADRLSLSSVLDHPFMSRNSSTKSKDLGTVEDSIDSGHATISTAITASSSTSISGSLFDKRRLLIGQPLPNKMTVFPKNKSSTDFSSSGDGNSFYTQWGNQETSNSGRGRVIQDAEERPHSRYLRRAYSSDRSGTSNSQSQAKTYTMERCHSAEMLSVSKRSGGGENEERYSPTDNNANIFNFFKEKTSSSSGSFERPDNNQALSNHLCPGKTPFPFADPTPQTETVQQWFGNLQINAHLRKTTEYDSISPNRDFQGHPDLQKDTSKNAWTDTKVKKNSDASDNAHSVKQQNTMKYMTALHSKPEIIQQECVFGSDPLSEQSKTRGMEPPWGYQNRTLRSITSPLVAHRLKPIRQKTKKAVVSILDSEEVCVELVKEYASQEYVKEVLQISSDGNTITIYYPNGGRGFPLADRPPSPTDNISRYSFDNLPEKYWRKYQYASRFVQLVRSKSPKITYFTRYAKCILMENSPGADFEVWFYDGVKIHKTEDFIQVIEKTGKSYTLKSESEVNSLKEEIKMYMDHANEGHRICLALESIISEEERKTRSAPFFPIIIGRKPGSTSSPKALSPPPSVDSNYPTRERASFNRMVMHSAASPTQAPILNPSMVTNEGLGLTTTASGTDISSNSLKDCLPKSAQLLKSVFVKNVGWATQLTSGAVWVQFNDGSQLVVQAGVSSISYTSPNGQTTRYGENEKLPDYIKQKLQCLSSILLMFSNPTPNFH
Myotonin-protein kinase (Homo sapiens), sequence (Q09013 whole entry): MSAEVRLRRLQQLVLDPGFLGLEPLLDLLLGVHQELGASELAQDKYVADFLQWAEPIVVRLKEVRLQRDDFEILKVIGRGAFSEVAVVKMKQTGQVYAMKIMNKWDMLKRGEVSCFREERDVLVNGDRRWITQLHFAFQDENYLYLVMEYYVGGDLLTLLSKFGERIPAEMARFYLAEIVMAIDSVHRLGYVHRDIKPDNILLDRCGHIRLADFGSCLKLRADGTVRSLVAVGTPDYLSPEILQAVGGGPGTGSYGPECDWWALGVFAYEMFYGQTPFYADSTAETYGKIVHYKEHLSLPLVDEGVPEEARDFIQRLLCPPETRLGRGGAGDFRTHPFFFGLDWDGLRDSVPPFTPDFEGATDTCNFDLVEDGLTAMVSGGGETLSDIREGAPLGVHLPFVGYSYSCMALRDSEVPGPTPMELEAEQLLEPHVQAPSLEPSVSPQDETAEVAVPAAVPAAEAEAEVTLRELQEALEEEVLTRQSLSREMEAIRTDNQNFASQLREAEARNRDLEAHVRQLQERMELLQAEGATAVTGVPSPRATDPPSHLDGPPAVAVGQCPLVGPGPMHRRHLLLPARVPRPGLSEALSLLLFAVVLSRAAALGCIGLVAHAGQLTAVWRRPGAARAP
Myotonin-protein kinase, sequence (Q09013 whole entry): as above
Homeodomain-interacting protein kinase 3, sequence (Q9H422 whole entry): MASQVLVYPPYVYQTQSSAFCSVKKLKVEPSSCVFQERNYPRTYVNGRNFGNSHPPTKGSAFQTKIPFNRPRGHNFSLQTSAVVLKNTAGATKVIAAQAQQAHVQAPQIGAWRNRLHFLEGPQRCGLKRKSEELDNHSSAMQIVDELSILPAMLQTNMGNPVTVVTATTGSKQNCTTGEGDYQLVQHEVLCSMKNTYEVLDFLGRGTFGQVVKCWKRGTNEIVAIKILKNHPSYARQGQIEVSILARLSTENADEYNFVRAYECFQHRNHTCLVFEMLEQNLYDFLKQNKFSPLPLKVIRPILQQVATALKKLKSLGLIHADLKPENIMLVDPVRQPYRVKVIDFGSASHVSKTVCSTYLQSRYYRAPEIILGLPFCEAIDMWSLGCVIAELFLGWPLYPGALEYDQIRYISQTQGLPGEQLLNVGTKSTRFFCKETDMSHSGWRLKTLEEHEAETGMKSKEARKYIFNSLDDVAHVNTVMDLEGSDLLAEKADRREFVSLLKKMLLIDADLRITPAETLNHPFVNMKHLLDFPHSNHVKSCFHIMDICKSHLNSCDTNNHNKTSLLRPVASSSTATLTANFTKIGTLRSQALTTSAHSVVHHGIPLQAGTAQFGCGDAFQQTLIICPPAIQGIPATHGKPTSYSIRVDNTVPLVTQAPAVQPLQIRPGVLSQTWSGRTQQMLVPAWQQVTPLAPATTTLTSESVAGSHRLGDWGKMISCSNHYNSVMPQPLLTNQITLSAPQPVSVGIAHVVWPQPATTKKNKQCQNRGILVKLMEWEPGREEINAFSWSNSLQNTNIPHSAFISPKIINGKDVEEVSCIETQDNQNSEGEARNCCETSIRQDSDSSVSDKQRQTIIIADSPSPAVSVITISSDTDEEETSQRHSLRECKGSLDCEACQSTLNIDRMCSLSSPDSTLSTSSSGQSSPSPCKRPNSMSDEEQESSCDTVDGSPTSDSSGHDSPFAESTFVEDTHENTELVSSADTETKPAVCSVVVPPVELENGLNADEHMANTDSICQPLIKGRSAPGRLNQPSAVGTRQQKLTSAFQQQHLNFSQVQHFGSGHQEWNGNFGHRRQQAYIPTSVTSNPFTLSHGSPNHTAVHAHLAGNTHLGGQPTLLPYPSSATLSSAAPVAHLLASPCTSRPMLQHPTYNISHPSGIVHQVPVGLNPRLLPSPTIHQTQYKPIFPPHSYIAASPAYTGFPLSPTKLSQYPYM
Tribbles homolog 2, sequence (Q92519 whole entry): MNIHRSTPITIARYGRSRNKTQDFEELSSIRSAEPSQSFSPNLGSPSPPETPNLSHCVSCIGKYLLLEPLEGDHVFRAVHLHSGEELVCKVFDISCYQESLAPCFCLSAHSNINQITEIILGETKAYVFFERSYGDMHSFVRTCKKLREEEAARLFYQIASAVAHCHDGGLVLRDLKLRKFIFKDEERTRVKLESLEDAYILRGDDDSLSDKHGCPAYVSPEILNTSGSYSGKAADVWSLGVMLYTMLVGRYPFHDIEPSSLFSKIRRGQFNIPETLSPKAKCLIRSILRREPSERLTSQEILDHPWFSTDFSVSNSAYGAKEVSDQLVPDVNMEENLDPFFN
Cyclin-dependent kinase-like 4, sequence (Q5MAI5 whole entry): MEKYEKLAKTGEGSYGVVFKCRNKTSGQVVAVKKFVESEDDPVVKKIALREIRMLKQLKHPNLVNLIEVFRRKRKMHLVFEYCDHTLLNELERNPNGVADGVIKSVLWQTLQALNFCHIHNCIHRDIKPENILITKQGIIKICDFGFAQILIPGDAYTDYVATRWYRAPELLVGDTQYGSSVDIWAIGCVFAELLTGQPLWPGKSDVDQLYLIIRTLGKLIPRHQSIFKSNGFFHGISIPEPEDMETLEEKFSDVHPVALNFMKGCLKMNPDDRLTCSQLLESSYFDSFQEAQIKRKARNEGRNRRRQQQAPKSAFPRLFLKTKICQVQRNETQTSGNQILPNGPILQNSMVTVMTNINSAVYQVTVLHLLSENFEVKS

`COC[C@@H](CC(C)C)NC1=N/C(=C\c2ccc3scnc3c2)C(=O)N1` was tested, and the IC50 [1] was greater than 10 µM, the IC50 [2] was greater than 10 µM and the IC50 [3] was “Not Active”. It also gave an IC50 [4] greater than 1 µM, an IC50 [5] greater than 1 µM and an IC50 [6] greater than 1 µM. It also gave an IC50 [7] greater than 1 µM, an IC50 [8] greater than 1 µM and an IC50 [9] greater than 1 µM. For the same compound, the IC50 (Myotonin-protein kinase) was greater than 1 µM, the IC50 [10] was greater than 1 µM and the IC50 [11] was greater than 10 µM. For the same compound, the IC50 [12] was greater than 10 µM, the IC50 [13] was greater than 10 µM and the IC50 [14] was greater than 10 µM. The IC50 [15] was greater than 10 µM, the IC50 [16] was greater than 10 µM and the IC50 [17] was greater than 1 µM. It also gave an IC50 [18] greater than 10 µM, an IC50 [19] greater than 10 µM and an IC50 [20] greater than 10 µM. The IC50 (Tribbles homolog 2) was greater than 1 µM, the ΔTm [21] was 4 °C and the ΔTm [22] was 3 °C. It also gave a ΔTm [23] of 0.3 °C, a ΔTm [24] of 1.7 °C and a ΔTm [25] of 6 °C. The ΔTm [26] was 2.1 °C, the ΔTm [27] was 1.1 °C and the ΔTm [28] was 1.2 °C. It also gave a ΔTm [29] of 1.4 °C, a ΔTm [30] of 3.5 °C and a ΔTm [31] of 0.4 °C. For the same compound, the ΔTm [32] was -1.2 °C, the ΔTm [33] was 1.4 °C and the ΔTm [34] was 4.5 °C.
